We go through 4 compounds from patent US20130165368A1, “ANTIMICROBIAL COMPOUNDS” (priority 2010, published 2013).

What all share (type): cell-based
One assay concerns Enterobacter cloacae. The assay is described as follows: MIC agar dilution, micro-organism 4 (11936). The following applies: Enterobacter cloacae 11936. The procedure:
(§1) Throughout the period of testing the microbial strains were subcultured and incubated for 18-20 hours at 37° C. on a weekly basis. Horse blood agar plates were used to sustain the micro-organisms both prior to and throughout testing. The alkoxylated alkanols listed in Table II below were obtained (these are obtainable from Sigma-Aldrich Company Ltd, Dorset, England), each having a GC purity of at least 97%.
(§2) Molar equivalent concentrations were used to allow comparison between compounds of differing molecular mass. Due to weighing difficulties, any compound in solid form was melted in a water bath prior to dilution. To make ten-times strength concentrations, which takes into account agar dilution, 0.0352 mmol of each compound was weighed into plastic universal bottles and 4 mL of sterile distilled water (SDW) was added. To produce a homogenous emulsion the universals were vortexed; once achieved the emulsions were serial diluted by adding 2 mL to 2 mL of SDW.
(§3) Myristyl alcohol and lauryl alcohol were re-weighed and dissolved in 25 μL of the polar solvent 1-methyl-2-pyrrolidone (M6762; Sigma-Aldrich) in sterile glass universals due to an inability to achieve an even suspension. To maintain an even emulsion in the presence of SDW 37.5 μL of the non-ionic detergent Tween 20 (P1379, Sigma-Aldrich) was also added. 3.9375 mL of SDW was added to these, to create a 4 mL volume; they were vortexed and diluted as before.
(§4) For every 100 mL of Isosensitest agar (IST) (CM0471; Oxoid, Basingstoke, England), 3.1 g of the IST powder was added to 100 mL SDW (as per manufacturer's instructions) and sterilised for 15 minutes at 121° C. Once sterilised, the molten agar was cooled to 50° C. in a water-bath. Subsequently 4.8 g of CCEY powder (BC2160; Bioconnections, Wetherby, England), also known as Brazier's medium, was added to 100 mL SDW for every 100 mL of agar needed. This was then sterilised for 15 minutes at 121° C. Once sterilised the molten agar was cooled to 50° C. in a water-bath and 4 mL of egg-yolk emulsion (S2073; TCS Biosciences Ltd, Buckingham, United Kingdom) and 1 mL of lysed defibrinated horse blood (HB035; TCS Biosciences Ltd, Buckingham, United Kingdom) were also added for every 100 mL needed. Horse blood lysis is achieved by dilution to half concentration with SDW; when fully lysed the mixture will turn dark red in colour.
(§5) 18 mL agar was added to each universal and then poured into sterile Petri dishes. This step creates a 1/10 dilution resulting in agar plates of the required strength. Control plates for each set of strains were created by adding 18 mL of agar to 2 mL of SDW.
(§6) Suspensions of each bacterial species were prepared with a density equal to that of a 0.5 McFarland standard using a densitometer. All suspensions were made using sterile distilled water and fresh 18-20 hour cultures. As a 0.5 McFarland standard contains 1.5×10^8 CFU/mL and the multipoint inoculators applies 1 μL spots of liquid, each bacterial suspension was diluted 1/15 (20 μL suspension to 280 μL sterile distilled water).
(§7) Bacterial suspensions were prepared from fresh 18-24 hour cultures as previously described. 1 μL of each strain was inoculated onto all 100 agar plates containing a different chemical concentration and the 2 control plates. This was done using a multipoint inoculator which inoculates 20 strains per plate. All plates were incubated for 22 hours at 37° C. in aerobic conditions.
(§8) Each plate was examined for bacterial growth after 22 and 48 hours, with each being incubated in between examinations. A positive result was recorded as growth of ≧10 colonies. A negative result was recorded as growth of <10 colonies as this is equivalent to 99.9% inhibition. The lowest concentration of chemical that inhibited growth was recorded as the MIC. The results are recorded in Table IV below, where the numbers are quoted in mmol/L.
(§9) Further experiments have also been conducted to determine the MIC of a number of other compositions as follows. […]
In general terms: In agar dilution, organisms are placed on agar that contains the substance at set levels.

The test system of a further assay is Yersinia enterocolitica. The assay is described as follows: MIC agar dilution, micro-organism 8 (11176). The following applies: Yersinia enterocolitica 11176. The procedure:
as §1, §2, §3, §4, §5, §6, §7, §8, §9

In the next assay the test system is Burkholderia cepacia. The assay is described as follows: MIC agar dilution, micro-organism 9 (1222). The following applies: Burkholderia cepacia 1222. The procedure: as §1, §2, §3, §4, §5, §6, §7, §8, §9
A further assay has as its system Acinetobacter baumannii. The assay can be described thus: MIC agar dilution, micro-organism 10 (19606). The following applies: Acinetobacter baumannii 19606. The procedure: as §1, §2, §3, §4, §5, §6, §7, §8, §9
A further assay deals with Serratia marcescens. The assay can be described thus: MIC agar dilution, micro-organism 5 (10211). The following applies: Serratia marcescens 10211. As to the method:
as §1, §2, §3, §4, §5, §6, §7, §8, §9

For assay [1], the system named is Stenotrophomonas maltophilia. The assay is described as follows: Additional antibacterial data, MIC (Table XII). Particulars: 24 hrs at 37° C.; for MIC (%) volume/volume: Stenotrophomonas maltophilia 10257, inoculum 10000 cfu/spot. As to the method: (§10) Using the protocols outlined in the example above, the inventors further investigated the antibacterial effects of representative alkoxylated alkanol compounds. The inoculum was 10000 cfu/spot; inclubation was for 24 hrs at 37° C.

In another assay the test system is Gram-negative species. The assay can be described thus: Additional antibacterial data, MIC (Table XII). The following applies: 24 hrs at 37° C.; for MIC (%) volume/volume: inoculum 10000 cfu/spot. The procedure: as §10
For a further assay, the system named is Staphylococcus aureus. The assay can be described thus: Additional antibacterial data, MIC (Table XII), Gram positive control. Particulars: Staphylococcus aureus 470273M (control); inoculum 10000 cfu/spot; 24 hrs at 37° C. The procedure:
as §10

Assay [2] concerns Staphylococcus aureus(MRSA). The description is as above. The following applies: Staphylococcus aureus(MRSA) 380022E (control); inoculum 10000 cfu/spot; 24 hrs at 37° C. The procedure:
as §10

The next assay deals with yeasts. The assay is described as follows: MIC with yeasts (Table XI). The following applies: 48 h, 48 hours at 37° C., aerobic. The procedure:
Further experiments have also been conducted to determine the MIC of a number of other compositions as follows. The experimental procedure followed is the same as that initially described at the beginning of this Examples and Data section of the specification, except where indicated below.
The results were obtained following incubation for 48 hours at 37° C. in aerobic conditions.

Values after ≈ are worked out from the molar mass of the structure shown. Read-outs that look alike come from different tables or passages of the source. Bounds are passed on as bounds.

Consider `CCCCCCCCCCCCCOCCOCCOCCOCCOCCOCCO` [C13E6, polyoxyethylene (6) tridecyl alcohol], for which the MIC with Enterobacter cloacae (22 hrs), with Enterobacter cloacae (48 hrs), with Yersinia enterocolitica (22 hrs), in the assay with Yersinia enterocolitica (48 hrs), against Burkholderia cepacia (22 hrs) and with Burkholderia cepacia (48 hrs) was greater than 880 µM throughout. For the same compound, the MIC against Acinetobacter baumannii (22 hrs), against Acinetobacter baumannii (48 hrs), with Serratia marcescens (22 hrs) and with Serratia marcescens (48 hrs) was greater than 880 µM each time.
For `CCCCCCCCCCCCCCCCO` [C0, 1-Hexadecanol, reference compound], the MIC is greater than 880 µM with Enterobacter cloacae (22 hrs, read-out: MIC); greater than 880 µM with Enterobacter cloacae (48 hrs, read-out: MIC); greater than 880 µM with Yersinia enterocolitica (22 hrs, read-out: MIC); greater than 880 µM in the assay with Yersinia enterocolitica (48 hrs, read-out: MIC); greater than 880 µM with Burkholderia cepacia (22 hrs, read-out: MIC); greater than 880 µM in the assay with Burkholderia cepacia (48 hrs, read-out: MIC). Also, the MIC is greater than 880 µM with Acinetobacter baumannii (22 hrs, read-out: MIC); greater than 880 µM in the assay with Acinetobacter baumannii (48 hrs, read-out: MIC); greater than 880 µM in the assay on Serratia marcescens (22 hrs, read-out: MIC); greater than 880 µM in the assay with Serratia marcescens (48 hrs, read-out: MIC).
On to `CCCCCCCCCCCCOCCO` [L1, Ethylene Glycol Monododecyl Ether], for which the “MIC (%) volume/volume” value in assay [1] came out at 0.5 % volume/volume; against Gram-negative species (Acinetobacter baumannii 19606), 1 % volume/volume; in the assay on Gram-negative species (Escherichia coli 10418) it was 0.25 % volume/volume; in the assay with Gram-negative species (Klebsiella pneumoniae 9528), 0.5 % volume/volume; in the assay with Staphylococcus aureus, 0.25 % volume/volume; in assay [2], 0.25 % volume/volume. Further, in the assay with Gram-negative species (at higher concentrations, 10000 cfu/spot), the “activity against selected Gram-negative species” value is “shows activity”.
In the case of `CCCCCCCCCCCCOCCOCCOCCOCCO` [L4, Tetraethylene Glycol Monododecyl Ether], the MIC was greater than 220 µM in the assay on yeasts (Candida guilliemondii 380022E); greater than 220 µM in the assay with yeasts (Candida lustaniae 458891B); less than 880 µM in the assay on yeasts (all of the yeasts tested); greater than 220 µM in the assay on yeasts (Candida albicans, Candida albicans 383107); 220 µM (≈ 79.8 µg/mL) against yeasts (Candida albicans, Candida albicans 384403C); greater than 220 µM in the assay with yeasts (Candida albicans, Candida albicans 457932F). For the same compound, the MIC in the assay with yeasts (Candida albicans, Candida albicans 464644V) is 220 µM (≈ 79.8 µg/mL); against yeasts (Candida albicans, Candida albicans 540668D), 110 µM (≈ 39.9 µg/mL); against yeasts (Candida albicans, Candida albicans 540992V), 220 µM (≈ 79.8 µg/mL); with yeasts (Candida albicans, Candida albicans 561251J), greater than 220 µM; with yeasts (Candida dubliniensis, Candida dubliniensis 383086P), 110 µM (≈ 39.9 µg/mL); with yeasts (Candida tropicalis, Candida tropicalis 470273M), greater than 220 µM. Further, the MIC in the assay on yeasts (Kluyveromyces marxianus, Candida kefyr 337838T) is 55 µM (≈ 19.9 µg/mL); in the assay on yeasts (Lodderomyces parapsilosis, Candida parapsilosis 381611V), greater than 220 µM; against yeasts (Lodderomyces parapsilosis, Candida parapsilosis 547133B), greater than 220 µM; in the assay on yeasts (Nakaseomyces glabratus, Candida glabrata 437713D), greater than 220 µM; against yeasts (Nakaseomyces glabratus, Candida glabrata 882870Q) it was greater than 220 µM; in the assay with yeasts (Pichia kudriavzevii, Candida krusei 378573D) it was greater than 220 µM. For the same compound, the “MIC (%) volume/volume” value in [1] is on record as 0.06 % volume/volume; with Gram-negative species (Acinetobacter baumannii 19606) it was greater than 4 % volume/volume; against Gram-negative species (Escherichia coli 10418), greater than 4 % volume/volume; against Gram-negative species (Klebsiella pneumoniae 9528) it was greater than 4 % volume/volume; against Staphylococcus aureus it was 0.03 % volume/volume; in assay [2], 0.03 % volume/volume. In addition, in assay [1] (relatively low concentrations, 10000 cfu/spot), the “susceptibility of Stenotrophomonas maltophilia” value is “susceptible”.

Broadly, the MIC is the smallest concentration in the dilution series that meets the test's criterion for growth inhibition.
